In experiment [1] the target is Recombinant human CSF1R kinase (Homo sapiens (Human), UniProt P07333). The class given is biochemical. To be noted: Z-LYTE Tyr 1 peptide substrate.
Description: Measurement of CSF1R Kinase Activity at Molecular Level
1. Reagents and materials:
• Z-LYTE™ Tyr 1 peptide substrate: Invitrogen, PV3190; • 5× kinase buffer: Invitrogen, PV3189; • 10 mM ATP: Invitrogen, PV3227; • Development reagent B: Invitrogen, PV3295; • Development buffer: Invitrogen, P3127; • Stopping solution: Invitrogen, P3094; • Recombinant human CSF1R kinase: Invitrogen, PR4598A; • 384 well plate, black: Corning, 3575; Envision: Perkin Elmer. 2. Preparation of reaction solutions
1) 1.33× kinase buffer: 5× kinase buffer was diluted to a 1.33× kinase buffer with ddH2O.
2) Dilution of a 4× test compound: The test compound was diluted in gradient to 4-fold the reaction concentration and the concentration of DMSO was kept at 8%. The final concentration of the compound in reaction was: 1, 0.33, 0.11, 0.037, 0.012, 0.004, 0.0014, 0.00046 μM, and the final concentration of DMSO was 2%.
3) A mixture of kinase/peptide substrate: In 1.33× kinase buffer, the kinase and Z-LYTE™ Tyr 1 peptide substrate were diluted to 0.12 μg/mL and 4 μM, respectively, to prepare a mixture of kinase/peptide substrate. The mixture was mixed gently with a pipette.
4) A phosphorylated peptide substrate solution (PP solution): 0.4 μL of Z-LYTE™ Tyr1 phosphorylated peptide substrate was added to 99.6 μL of 1.33× kinase buffer.
5) ATP solution: 10 mM of ATP was diluted to 760 μM with 1.33× kinase buffer to prepare ATP solution.
6) Development solution: Development reagent B was diluted with Development buffer at a ratio of 1:200.
1) Kinase reaction (10 μL system)
2.5 μL of 4× test compound was added to each reaction well of the 384 plate, and the corresponding volume of 8% DMSO was added to the control well. The plate was placed on ice. 5 μL of a mixture of kinase/peptide substrate, 2.5 μL of kinase buffer and ATP solution were successively added to each well. Three control groups were set up: Group C1 contains only kinase buffer, group C2 contains the mixture of kinase/peptide substrate, kinase buffer and ATP, and group C3 contains 5 μL of PP solution. After adding the reaction components, the 384-well plate was sealed and incubated at 25-30° C. for 1 h in dark.
5 μL of Development solution was added to each well, sealed and incubated at 25-30° C. for another 1 h in dark.
3) Reaction stopping and plate reading
5 μL of stopping solution was added to each well. The Coumarin value (excitation at 400 nm, emission at 445 nm) and Fluorescein value (excitation at 400 nm, emission at 520 nm) were measured, respectively.
ER (emission ratio): Coumarin emission read-out (445 nm)/Fluorescein emission read-out (520 nm); • C3 445 nm: 100% phosphorylated Coumarin emission read-out; • C3 520 nm: 100% phosphorylated Fluorescein emission read-out; • C1 445 nm: 0% phosphorylated Coumarin emission read-out; • C1 520 nm: 0% phosphorylated Fluorescein emission read-out. Inhibition rate % (IR)=[1−% phosphorylation ratetest sample/100% phosphorylation ratecontrol]×100%
% phosphorylation ratetest sample: phosphorylation rate of the test compound; • 100% phosphorylation ratecontrol: phosphorylation rate of C3 control group.
5. IC50 values: calculated by using software XL-Fit™ (version 5.3) supplied by ID Business Solutions (Guildford, UK), which is an additional software to Microsoft Excel.
In experiment [2] the target is CSF1R phosphorylation in THP-1 cells (Homo sapiens (Human), UniProt P07333). The experiment is described as follows: Detection of CSF1R phosphorylation activity at cell level (THP-1, M-CSF stimulated, ELISA). The experiment is classed as cell-based. To be noted: p-CSF1R ELISA, compound 60 min, 300 ng/mL M-CSF 1 min. The procedure:
Detection of CSF1R Phosphorylation Activity at Cell Level
THP-1 (ATCC), human acute monocytic leukemia cells. The cells were cultured in an RPMI 1640 medium containing 10% FBS.
(§1) 2. Reagents and instruments
• Human phosphorylation-CSF1R ELISA kit: R&D, #DYC3268-2; • RPMI 1640 culture solution: GIBCO, 910491; • Human M-CSF recombinant cytokine: R&D, 9216-MC-500; • Cell lysis buffer: Cell Signal, 99803S; • 1×PBS buffer (1 L): 8.0 g of NaCl, 0.2 g of KCl, 3.58 g of Na2HPO4-12H2O, 0.24 g of KH2PO4 were dissolved in 1 L of dd H2O, and the pH was adjusted to 7.4; • Blocking solution: PBS buffer containing 1% BSA; • PBST washing liquid: PBS buffer containing 0.05% Tween-20; • Chromogenic substrate: R&D, #DY999; • 2N H2SO4; • Microwell plate reader: Labsystems Multiskan K3: Thermo; Envision: Perkin Elmer; • ELISA plate: Corning, #9018; • Cell culture plate: Facol, #353027. 3. Treatment of cells and preparation of lysis buffer
THP-1 cells were resuspended in RPMI-1640 culture solution containing 2% FBS, and the culture was added to a 96-well plate at a density of 5×10^4/well, 50 μL/well, and cultured in a cell incubator at 5% CO2 and 37° C. overnight; The test compound was diluted with a serum-free RPMI-1640 medium to 3, 1.1, 0.37, 0.12, 0.04, 0.014, 0.005 and 0.002 μM, and the concentration of DMSO was 5%. 5 μL of the diluted compound was added to the 50 μL cell culture system, the culture was cultured in a 5% CO2, 37° C. cell incubator for 60 min, 300 ng/mL of M-CSF was added to the cells, and the mixture was stimulated in the 37° C. cell incubator for 1 min, added 50 μL of cell lysis buffer, and stored in a refrigerator at −80° C.
100 μL/well of the p-CSF1R capture antibody diluted to 0.8 μg/mL with PBS was added to the ELISA plate, and the plate was coated on a shaker at room temperature overnight. The culture was washed with PBST, and then added blocking solution and incubated at room temperature for 2 h. The culture was washed with PBST, added 90 μL of cell lysis buffer, and incubated on a shaker at 25° C. for 2 h. The plate was washed with PBST three times, added 100 μL of anti-p-tyrosine-HRP detection antibody diluted with 0.1% PBS-BSA diluent, and incubated on a shaker at 25° C. for 2 h. The plate was washed with PBST washing liquid, added 100 μL of chromogenic substrate and incubated at room temperature for 10-20 min. The reaction was stopped by adding 50 μL of 2N H2SO4. The optical density signal (450/570 nm) of each well was detected in Labsystems Multiskan K3 or Envision.
wherein • Drug-treated well read-out: indicating the optical density signal of a cell well with the test compound treatment. • Background read-out: indicating the optical density signal of a well without cells but with cell lysis buffer. • Cell well read-out: indicating the optical density signal of a cell well not treated with the compound. 6. Calculation of IC50: obtained by using XL-Fit 5.3 software. 7. Test results

Another experiment deals with Ba/F3^BCR-FMS-11 cells. The experiment is described as follows: Cell proliferation experiment (Ba/F3^BCR-FMS-11, cckit-8). The experiment is classed as cell-based, mouse. The conditions noted are these: Ba/F3^BCR-FMS-11 cell proliferation. The procedure: Cell Proliferation Experiment
Ba/F3^BCR-FMS-11, mouse primary B lymphocytes stably expressing the BCR-FMS fusion gene. The cells were cultured in an RPMI 1640 medium containing 10% FBS.
as §1
• cckit-8 kit: Dojindo, 9 CK04; • Envision: Perkin Elmer; • Cell culture plate: Facol, 9353027. 3. Experimental steps
The BCR-FMS fusion gene was transfected into Ba/F3 cells, and the cell line Ba/F3^BCR-FMS-11 that stably expresses BCR-FMS and grows depending on CSF-1R was screened. Ba/F3^BCR-FMS-11 cell proliferation experiments is completed by using the Cell Counting kit cckit-8 in a 96-well plate. In a 96-well plate, 5000/well of Ba/F3^BCR-FMS-11 cells were inoculated at 100 μL/well. […] 10 μL of the compound dilutions with the above 8 concentrations were added to the culture cell wells. The culture was incubated in a 37° C. and 5% CO2 cell incubator for 72 hours. 10 μL of Cell Counting kit cckit-8 detection reagent was added to each well, and incubated at 37° C. and 5% CO2 in a cell incubator for another 1 h. The optical density absorption value at 450 nm of each well was detected by using Perkin Elmer Envision instrument.
wherein • Drug-treated well read-out: indicating the optical density signal of a cell well with the test compound treatment. • Cell well read-out: indicating the optical density signal of a cell well not treated with the test compound (only 0.5% DMSO). • Background read-out: indicating the optical density signal of a well with the cell medium. 5. Calculation of IC50: obtained by using XL-Fit 5.3 software. 6. Test results

Sequence of CSF1R phosphorylation in THP-1 cells (P07333 20-972): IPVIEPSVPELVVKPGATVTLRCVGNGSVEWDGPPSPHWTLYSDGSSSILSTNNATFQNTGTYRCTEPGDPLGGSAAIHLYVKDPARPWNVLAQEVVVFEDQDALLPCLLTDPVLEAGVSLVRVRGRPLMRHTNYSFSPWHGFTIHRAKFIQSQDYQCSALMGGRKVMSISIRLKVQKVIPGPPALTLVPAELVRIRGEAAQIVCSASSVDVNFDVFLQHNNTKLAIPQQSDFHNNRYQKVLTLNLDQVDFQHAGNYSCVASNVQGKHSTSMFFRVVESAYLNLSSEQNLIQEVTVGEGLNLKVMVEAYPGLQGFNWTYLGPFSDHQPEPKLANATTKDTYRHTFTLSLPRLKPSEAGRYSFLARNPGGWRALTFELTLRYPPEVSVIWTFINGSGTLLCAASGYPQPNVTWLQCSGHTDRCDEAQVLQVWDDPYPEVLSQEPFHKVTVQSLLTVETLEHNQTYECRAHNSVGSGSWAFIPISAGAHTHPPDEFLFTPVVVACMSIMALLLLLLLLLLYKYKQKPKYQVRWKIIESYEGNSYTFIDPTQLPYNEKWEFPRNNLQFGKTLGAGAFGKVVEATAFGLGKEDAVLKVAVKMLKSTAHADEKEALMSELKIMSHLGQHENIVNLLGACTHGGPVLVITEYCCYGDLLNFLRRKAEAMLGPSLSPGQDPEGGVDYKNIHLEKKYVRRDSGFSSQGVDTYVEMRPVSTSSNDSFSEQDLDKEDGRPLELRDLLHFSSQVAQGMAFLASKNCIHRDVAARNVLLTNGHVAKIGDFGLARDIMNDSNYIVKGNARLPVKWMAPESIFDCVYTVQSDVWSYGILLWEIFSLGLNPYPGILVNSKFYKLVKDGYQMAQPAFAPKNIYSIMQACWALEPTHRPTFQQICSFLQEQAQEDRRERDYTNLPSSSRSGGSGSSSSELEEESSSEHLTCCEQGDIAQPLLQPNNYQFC
Sequence of Recombinant human CSF1R kinase (P07333 20-972): as above

Consider `Cc1cc(Oc2ccnc(-c3cnn(C)c3)c2)cnc1NC(=O)c1cccn(C(C)C)c1=O` [Compound 24], for which the IC50 – broadly, the concentration that gives 50% inhibition – in experiment [1] stood at 0.03 µM; in experiment [2], 0.059 µM; in the experiment with Ba/F3^BCR-FMS-11 cells (Mus musculus, 72 h) it was 0.037 µM.
For the compound `CC(C)n1cccc(C(=O)Nc2ncc(Oc3ccnc(-c4cnn(C)c4)c3)cc2C#N)c1=O` [Compound 25], the IC50 came out at 0.016 µM in experiment [1]; 0.038 µM in experiment [2]; 0.066 µM in the experiment with Ba/F3^BCR-FMS-11 cells (Mus musculus, 72 h).
On to `Cn1cc(-c2cc(Oc3ccc(NC(=O)c4ccc5n(c4=O)CCC5)nc3)ccn2)cn1` [Compound 27], for which the IC50 in experiment [1] worked out at 0.008 µM; in experiment [2] it was 0.018 µM; with Ba/F3^BCR-FMS-11 cells (Mus musculus, 72 h) it was 0.008 µM.
For `Cc1ncc(C(=O)Nc2ccc(Oc3ccnc(-c4cn(C)cn4)c3)cn2)c(=O)n1C` [Compound 30], the IC50 in experiment [1] was 0.035 µM; in experiment [2] it was 0.014 µM; with Ba/F3^BCR-FMS-11 cells (Mus musculus, 72 h), 0.024 µM.
Turning to `Cc1cn(-c2cc(Oc3ccc(NC(=O)c4cnc(C)n(C)c4=O)nc3)ccn2)cn1` [Compound 32], the IC50 in experiment [1] is 0.059 µM; in experiment [2], 0.015 µM; in the experiment with Ba/F3^BCR-FMS-11 cells (Mus musculus, 72 h), 0.099 µM.
As for `Cc1ncc(C(=O)Nc2ccc(Oc3ccnc(-c4cccnc4)c3)cn2)c(=O)n1C` [Compound 33], the IC50 in experiment [1] was 0.062 µM; in experiment [2], 0.015 µM; in the experiment on Ba/F3^BCR-FMS-11 cells (Mus musculus, 72 h), 0.058 µM.
Take `Cc1ncc(C(=O)Nc2ccc(Oc3ccnc(-c4ccccn4)c3)cn2)c(=O)n1C` [Compound 34]: the IC50 is 0.079 µM in experiment [1]; 0.024 µM in experiment [2]; 0.125 µM in the experiment on Ba/F3^BCR-FMS-11 cells (Mus musculus, 72 h).
In the case of `Cc1cccc(Nc2cc(Oc3ccc(NC(=O)c4cnc(C)n(C)c4=O)nc3)ccn2)n1` [Compound 36], the IC50 in experiment [1] came out at 0.028 µM; in experiment [2], 0.008 µM; in the experiment with Ba/F3^BCR-FMS-11 cells (72 hours), 0.023 µM.
Regarding `CCn1cc(-c2cc(Oc3ccc(NC(=O)c4cnc(C)n(C)c4=O)nc3)ccn2)cn1` [Compound 38], the IC50 worked out at 0.012 µM in experiment [1]; 0.007 µM in experiment [2]; 0.017 µM with Ba/F3^BCR-FMS-11 cells (Mus musculus, 72 h).
Turning to `Cc1ncc(C(=O)Nc2ccc(Oc3ccnc(-c4cnn(C(C)C)c4)c3)cn2)c(=O)n1C` [Compound 39], the IC50 was 0.033 µM in experiment [1]; 0.012 µM in experiment [2]; 0.063 µM in the experiment with Ba/F3^BCR-FMS-11 cells (Mus musculus, 72 h).
For `Cc1ncc(C(=O)Nc2ccc(Oc3ccnc(-c4ccncc4)c3)cn2)c(=O)n1C` [Compound 41], in that order: 0.027 µM, 0.019 µM and 0.052 µM.
On the same counts, the results for `Cc1ncc(C(=O)Nc2ccc(Oc3ccnc(Nc4ccn(C)n4)c3)cn2)c(=O)n1C` [Compound 42] are 0.005 µM, 0.006 µM and 0.006 µM.
For `Cc1ncc(C(=O)Nc2ccc(Oc3ccnc(Nc4ccnn4C)c3)cn2)c(=O)n1C` [Compound 43], in that order: 0.006 µM, 0.006 µM and 0.005 µM.
`Cn1ccc(Nc2cc(Oc3ccc(NC(=O)c4cnc5n(c4=O)CCC5)nc3)ccn2)n1` [Compound 44]: the IC50 in experiment [1] amounted to 0.007 µM; in experiment [2], 0.003 µM; in the experiment on Ba/F3^BCR-FMS-11 cells (Mus musculus, 72 h) it was 0.006 µM.
As for `Cn1cc(Nc2cc(Oc3ccc(NC(=O)c4cnc5n(c4=O)CCC5)nc3)ccn2)cn1` [Compound 45], the IC50 in experiment [1] was determined as 0.009 µM; in experiment [2] it was 0.003 µM; in the experiment with Ba/F3^BCR-FMS-11 cells (Mus musculus, 72 h), 0.009 µM.
Turning to `Cn1ccc(Nc2cc(Oc3ccc(NC(=O)c4cccn(C)c4=O)nc3)ccn2)n1` [Compound 46], the IC50 in experiment [1] amounted to 0.012 µM; in experiment [2] it was 0.009 µM; in the experiment on Ba/F3^BCR-FMS-11 cells (Mus musculus, 72 h) it was 0.02 µM.
Take `Cn1nccc1Nc1cc(Oc2ccc(NC(=O)c3cnc4n(c3=O)CCC4)nc2)ccn1` [Compound 47]: the IC50 was determined as 0.005 µM in experiment [1]; 0.003 µM in experiment [2]; 0.006 µM with Ba/F3^BCR-FMS-11 cells (Mus musculus, 72 h).
As for `Cn1nccc1Nc1cc(Oc2ccc(NC(=O)c3cccn(C)c3=O)nc2)ccn1` [Compound 48], the IC50 was 0.005 µM in experiment [1]; 0.005 µM in experiment [2]; 0.005 µM with Ba/F3^BCR-FMS-11 cells (Mus musculus, 72 h).
As for `Cc1ncc(C(=O)Nc2ccc(Oc3ccnc(-c4cnn(C(F)F)c4)c3)cn2)c(=O)n1C` [Compound 49], the IC50 came out at 0.023 µM in experiment [1]; 0.014 µM in experiment [2]; 0.024 µM in the experiment on Ba/F3^BCR-FMS-11 cells (Mus musculus, 72 h).
On the same counts, the results for `Cc1ncc(C(=O)Nc2ccc(Oc3ccnc(-c4ccc(F)cc4)c3)cn2)c(=O)n1C` [Compound 50] are 0.078 µM, 0.054 µM and 0.112 µM.
On the same counts, the results for `Cc1ncc(C(=O)Nc2ccc(Oc3ccnc(-c4ccccc4)c3)cn2)c(=O)n1C` [Compound 51] are 0.056 µM, 0.067 µM and 0.097 µM.
Consider `CCn1cccc(C(=O)Nc2ccc(Oc3ccnc(-c4cnn(C)c4)c3)cn2)c1=O` [Compound 55], for which the IC50 in experiment [1] came out at 0.003 µM; in experiment [2], 0.007 µM; with Ba/F3^BCR-FMS-11 cells (Mus musculus, 72 h), 0.005 µM.
For `CC(C)n1cncc(C(=O)Nc2ccc(Oc3ccnc(-c4cnn(C)c4)c3)cn2)c1=O` [Compound 56], in that order: 0.004 µM, 0.021 µM and 0.008 µM.
`CC(C)n1cc(Cl)cc(C(=O)Nc2ccc(Oc3ccnc(-c4cnn(C)c4)c3)cn2)c1=O` [Compound 57]: the IC50 was 0.024 µM in experiment [1]; 0.043 µM in experiment [2]; 0.012 µM with Ba/F3^BCR-FMS-11 cells (Mus musculus, 72 h).
For `Cn1cc(-c2cc(Oc3ccc(NC(=O)c4nccn(C)c4=O)nc3)ccn2)cn1` [Compound 58], in that order: 0.069 µM, 0.126 µM and 0.179 µM.
For `CC(C)n1nccc(C(=O)Nc2ccc(Oc3ccnc(-c4cnn(C)c4)c3)cn2)c1=O` [Compound 60], in that order: 0.008 µM, 0.014 µM and 0.015 µM.
As to `Cn1cc(-c2cc(Oc3ccc(NC(=O)c4cccn(C(F)F)c4=O)nc3)ccn2)cn1` [Compound 61], the IC50 in experiment [1] is 0.045 µM; in experiment [2] it was 0.075 µM; with Ba/F3^BCR-FMS-11 cells (Mus musculus, 72 h), 0.087 µM.
For the compound `Cc1ncc(-c2cc(Oc3ccc(NC(=O)c4cnc(C)n(C)c4=O)nc3)ccn2)s1` [Compound 62], the IC50 was determined as 0.02 µM in experiment [1]; 0.009 µM in experiment [2]; 0.032 µM in the experiment with Ba/F3^BCR-FMS-11 cells (Mus musculus, 72 h).
For `Cc1ncc(C(=O)Nc2ccc(Oc3ccnc(Nc4cnn(C)c4)c3)cn2)c(=O)n1C` [Compound 63], in that order: 0.009 µM, 0.005 µM and 0.008 µM.
For `Cc1ncc(C(=O)Nc2ccc(Oc3ccnc(-c4ccc5nccn5c4)c3)cn2)c(=O)n1C` [Compound 64], in that order: 0.016 µM, 0.021 µM and 0.04 µM.

For the origin of these results see patent publication US12435062B2, “Amide compounds and uses thereof” (HUTCHISON MEDIPHARMA LIMITED, priority 2020, dated 2025).
